Measurements reported in patent US12023335B2, “Method for treating pancreatic cancer” (PTC THERAPEUTICS, INC., priority 2018, dated 2024).
Entries after “also recorded” stand apart in the source; their conditions may differ.

Columns and labels:
[1] = tested on: J1002VEH and J1002TAM cells; test: Viability and dose response of J1002VEH and J1002TAM cells (AlamarBlue); format: cell-based, mouse
Protocol: For proliferation curves, cells were plated in 96-well plates (Corning, 3603) and allowed to seed overnight. Replicate plates were plated for each time point since viability measurements were an endpoint procedure. The following day, cells were treated with Compound at indicated concentrations and treated with DMSO at the highest used concentration (always below 0.003%). Cells were treated for 96 hours, and viability was determined every 24 hours using AlamarBlue reagent (BioRad, BUF012B). Briefly, 10 μL of AlamarBlue was added to each well (100 μL), mixed briefly, and allowed to incubate at 37° C. and 5% CO2 for 4 hours. Following incubation, fluorescence was measured on a Promega multimode microplate reader. For analysis, background levels were subtracted from raw results, which were then normalized to be represented as a fold change compared to DMSO-treated cells on Day 0. All assays were carried out in at least triplicate with 4-8 technical replicates per treatment group, per experiment. (FIG. 1a and FIG. 10b)
For dose response curves, cells were plated in 96-well plates (Corning, 3603) and allowed to seed overnight. The following day, cells were treated with Compound 1. […] Cells were treated for 72 hours and then viability was determined using AlamarBlue reagent (BioRad, BUF012B). […] Following incubation, fluorescence was measured on a Promega multimode microplate reader. […]

[2] = target: T1, tubulin from porcine brain (Sus scrofa, UniProt P02550+P02554); test: Cell-free tubulin polymerization assay; format: biochemical; conditions: 0.12, 0.37, 1.11, 3.33 and 10 μM (FIGS. 11e, 11f)
T1 construct: which uses >99% pure tubulin from porcine brain; purchased Cytoskeleton #BK011P; host or cells: porcine brain (tissue-purified)
Protocol: Assays were carried out according to manufacturer's recommendations using the fluorescence-based tubulin polymerization assay kit from Cytoskeleton (#BK011P) which uses >99% pure tubulin from porcine brain. All drugs used were dissolved in DMSO and then diluted in ultrapure water to 10× final concentration. Final percentage of DMSO was kept constant for all samples. Tubulin was prepared by resuspension at 2 mg/mL in 80 mM PIPES pH 6.9, 2.0 mM MgCl2, 0.5 mM EGTA, 1.0 mM GTP, 15% glycerol, and 10 μM fluorescent reporter. All drug samples (10×) were added to a pre-warmed half-area 96-well plate (Corning Costar, 3686) in duplicate, and then warmed to 37° C. for 1 min. Tubulin (50 μL/well) was then added to all wells, and the plate was placed in a plate reader pre-warmed to 37° C. The plate was mixed by medium, orbital shaking for 5 seconds, and fluorescence measured every 60 seconds for 90 minutes (Ex: 340-360+/−20 nm, Em: 410-460 nm+/−20 nm) in a BioTek Synergy 2 plate reader. Polymerization rates (fluorescence units/minute) were determined by measuring the maximal slope (by linear regression) of the linear portion of the growth phase of the polymerization curve. (FIG. 11e and FIG. 11f)

[3] = tested on: tubulin; test: Analysis of free tubulin content in Aspc1 cells (fractionation, western blot); format: cell-based, human; conditions: 3.0 μM, 2 hours, relative to vehicle, COL and TAX (FIGS. 11a, 11b)
Protocol: Western blotting was carried out on lysates isolated from treated cells. Cells were lysed using RIPA buffer (50 mM Tris, pH 7.4, 150 mM NaCl, 1% Nonidet P-40, 0.1% SDS, 0.5% deoxycholate) supplemented with cOmplete™ EDTA-free Protease Inhibitor Cocktail (Sigma, 11836170001) and Halt™ Phosphatase Inhibitor Cocktail (ThermoFisher, 78420). Lysates were quantified using the Pierce BCA Protein Assay Kit (ThermoFisher, 23227), diluted in SDS sample buffer, resolved by SDS-PAGE (15-30 μg/sample), and transferred onto PVDF membranes. Membranes were blocked with 5% w/v nonfat dry milk in TBS-T (0.1% Tween20) and primary antibodies were incubated overnight at 4° C., diluted in 5% BSA in TBS-T at the indicated concentrations. HRP-conjugated secondary antibodies were incubated in blocking buffer for 1 hour at room temperature before detection using Super Digital-ECL™ substrate solution (Kindle Biosciences, R1002). (FIG. 5b, FIG. 10a and FIG. 11b)
Free heterodimer tubulin was separated from tubulin incorporated into microtubules according to manufacturer's recommendations using the Microtubule/Tubulin In Vivo Assay Biochem Kit (Cytoskeleton, #BK038). Cells were seeded in 12-well plates such that ˜16 hours later they would be approximately 50-60% confluent. […]

T1 sequence (P02554 whole entry): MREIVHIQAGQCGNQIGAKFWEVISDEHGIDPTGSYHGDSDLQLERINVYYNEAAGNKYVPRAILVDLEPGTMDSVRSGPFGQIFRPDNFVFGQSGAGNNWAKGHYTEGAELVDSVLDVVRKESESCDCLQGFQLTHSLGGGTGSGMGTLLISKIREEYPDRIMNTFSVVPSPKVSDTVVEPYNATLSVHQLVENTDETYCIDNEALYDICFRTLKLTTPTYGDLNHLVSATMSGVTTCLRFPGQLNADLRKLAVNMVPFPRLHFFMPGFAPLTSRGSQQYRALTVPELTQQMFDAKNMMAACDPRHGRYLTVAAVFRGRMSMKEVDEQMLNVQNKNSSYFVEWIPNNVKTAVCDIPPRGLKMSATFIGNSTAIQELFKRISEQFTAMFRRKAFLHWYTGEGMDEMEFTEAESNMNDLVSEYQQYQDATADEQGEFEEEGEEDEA
T1 sequence (P02550 whole entry): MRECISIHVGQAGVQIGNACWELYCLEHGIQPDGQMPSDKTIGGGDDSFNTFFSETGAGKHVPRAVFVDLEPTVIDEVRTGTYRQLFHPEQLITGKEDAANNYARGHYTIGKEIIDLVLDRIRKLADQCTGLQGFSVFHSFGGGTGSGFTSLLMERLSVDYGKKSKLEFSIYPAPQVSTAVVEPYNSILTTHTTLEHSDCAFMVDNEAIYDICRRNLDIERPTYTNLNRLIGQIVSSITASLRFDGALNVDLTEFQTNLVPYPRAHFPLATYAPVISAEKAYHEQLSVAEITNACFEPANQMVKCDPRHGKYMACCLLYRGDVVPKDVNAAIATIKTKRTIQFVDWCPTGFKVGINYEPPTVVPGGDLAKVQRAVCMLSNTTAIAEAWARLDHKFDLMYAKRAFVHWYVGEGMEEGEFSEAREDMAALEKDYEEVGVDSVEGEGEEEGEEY

In the case of `Cc1nc2ccc(F)cc2n1-c1nc(N)c(F)c(Nc2ccc(C(F)(F)F)cc2)n1` [Compound 1, 5-fluoro-2-(6-fluoro-2-methyl-1H-benzo[d]imidazol-1-yl)-N4-[4-(trifluoromethyl)phenyl]pyrimidine-4,6-diamine], the “relative viability of J1002VEH and J1002TAM cells” value ([1]; 0.1 μM or 1.0 μM over 96 hours (FIG. 10b)) was “dose and time-dependent decrease in viability of cells dependent on BMI-1 protein expression”, the “dose response in J1002VEH and J1002TAM cells” value ([1]; 72 hours (FIG. 10c)) was “sub-M activity toward reduction in BMI-1 protein expression” and the “tubulin polymerization (fluorescence units/minute)” value [2] was “function as a microtubule polymerization inhibitor; also recorded: dose-dependent decrease in tubulin polymerization; also recorded: directly inhibits microtubule formation”. The “free tubulin vs microtubules in cell lysate fractions” value [3] was “significant fold-change increase in prevention of tubulin formation”.
